From patent US20220062243A1, “P14-Kinase Inhibitors with Anti-Cancer Activity” (The Board of Trustees of the Leland Stanford Junior …, priority 2019, published 2022) come the findings set out here.

pIC50: −log10 of the molar value.

One may read the pIC50 as −log10 of the IC50, conventionally taken in molar units.

The target in the experiment is PI4K-IIIβ (Homo sapiens, UniProt Q9UBF8). Kind of experiment: PI-kinase assay (membrane capture assay for lipid kinase activity), PI4KIIIβ. Format: biochemical. The settings on record: read-out: PI4KIIIβ kinase activity (IC50 class). The method, then: PI4-kinase inhibition can be determined by a kinase activity assay, e.g., by an assay that determines the level of incorporation of radiolabeled phosphate from [γ-^32P]-ATP into a substrate molecule after treatment with a subject compound, relative to a control, by measuring the beta-particle emission rate using a scintillation counter or phosphorimaging.
Chain of PI4K-IIIβ (Q9UBF8 whole entry): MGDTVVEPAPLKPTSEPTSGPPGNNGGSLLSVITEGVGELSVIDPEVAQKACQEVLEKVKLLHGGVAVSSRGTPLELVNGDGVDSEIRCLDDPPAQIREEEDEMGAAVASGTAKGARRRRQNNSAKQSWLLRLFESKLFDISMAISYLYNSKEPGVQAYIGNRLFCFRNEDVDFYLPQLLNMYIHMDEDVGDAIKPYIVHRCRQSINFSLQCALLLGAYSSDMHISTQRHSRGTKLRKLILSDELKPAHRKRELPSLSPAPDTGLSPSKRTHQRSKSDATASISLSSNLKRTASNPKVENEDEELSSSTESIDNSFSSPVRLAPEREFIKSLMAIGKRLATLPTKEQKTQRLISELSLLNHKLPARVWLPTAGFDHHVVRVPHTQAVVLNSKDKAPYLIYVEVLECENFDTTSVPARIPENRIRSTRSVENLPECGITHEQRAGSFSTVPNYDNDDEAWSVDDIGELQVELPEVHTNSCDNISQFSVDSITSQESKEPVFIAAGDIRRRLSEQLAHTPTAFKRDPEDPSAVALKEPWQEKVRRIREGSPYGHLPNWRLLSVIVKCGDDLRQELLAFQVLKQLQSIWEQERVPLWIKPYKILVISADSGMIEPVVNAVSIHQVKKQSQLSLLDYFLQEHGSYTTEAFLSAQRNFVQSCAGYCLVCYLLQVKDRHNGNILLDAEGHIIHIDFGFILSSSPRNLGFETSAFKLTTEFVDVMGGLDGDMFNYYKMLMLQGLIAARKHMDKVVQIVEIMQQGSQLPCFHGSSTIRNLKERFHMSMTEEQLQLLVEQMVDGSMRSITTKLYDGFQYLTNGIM
PI-kinase assay: Compounds are tested in C.1.1. PI kinase assays as described by Shokat et al., “A membrane capture assay for lipid kinase activity.” Nat. Protoc. […] Selected compounds of Table 1 and 2 were prepared and tested for inhibition activity in a variety of kinase assays.
On to `COc1ccc(-c2sc(NC(=O)CC3CCCC3)nc2C)cc1S(=O)(=O)Nc1ccc(O)cc1` [Compound S-1, 2-cyclopentyl-N-[5-[3-[(4-hydroxyphenyl)sulfamoyl]-4-methoxy-phenyl]-4-methyl-thiazol-2-yl]acetamide], for which the pIC50 is > 7.00. `COc1ccc(-c2sc(NC(=O)C3CCCC3)nc2C)cc1S(=O)(=O)N[C@H]1CC[C@H](O)CC1` [Compound S-9, N-[5-[3-[(4-hydroxycyclohexyl)sulfamoyl]-4-methoxy-phenyl]-4-methyl-thiazol-2-yl]cyclopentanecarboxamide]: the pIC50 was > 7.00. Turning to `COc1ccc(-c2sc(NC(=O)C3CCCC3)nc2C)cc1S(=O)(=O)Nc1ccc(CO)cc1` [Compound S-41, N-[5-[3-[[4-(hydroxymethyl)phenyl]sulfamoyl]-4-methoxy-phenyl]-4-methyl-thiazol-2-yl]cyclopentanecarboxamide], the pIC50 was > 7.00. On to `COc1ccc(-c2sc(NC(=O)Cc3ccccc3)nc2C)cc1S(=O)(=O)Nc1ccc(O)cc1` [Compound S-49, N-[5-[3-[(4-hydroxyphenyl)sulfamoyl]-4-methoxy-phenyl]-4-methyl-thiazol-2-yl]-2-phenyl-acetamide], for which the negative-log IC50 (pIC50) is > 7.00. `COc1ccc(-c2sc(NC3CCCCCC3)nc2C)cc1S(=O)(=O)Nc1c(C)cccc1C` [Compound S-98, 5-[2-(cycloheptylamino)-4-methyl-thiazol-5-yl]-N-(2,6-dimethylphenyl)-2-methoxy-benzenesulfonamide;2,2,2-trifluoroacetic acid]: the pIC50 is > 7.00.

On to `COc1ccc(-c2sc(NCC3CCCCC3)nc2C)cc1S(=O)(=O)NC1CCNCC1` [Compound S-123, 5-[2-(cyclohexylmethylamino)-4-methyl-thiazol-5-yl]-2-methoxy-N-(4-piperidyl)benzenesulfonamide], for which the pIC50 was > 7.00. With `COc1ccc(-c2sc(NCC3CCCCC3)nc2C)cc1S(=O)(=O)NC1CC1` [Compound S-127, 5-[2-(cyclohexylmethylamino)-4-methyl-thiazol-5-yl]-N-cyclopropyl-2-methoxy-benzenesulfonamide], the pIC50 was 6.00 to 7.00. Regarding `COc1ccc(-c2sc(NCC3CCCCC3)nc2C)cc1S(=O)(=O)NCC1CCCCC1` [Compound S-128, N-(cyclohexylmethyl)-5-[2-(cyclohexylmethylamino)-4-methyl-thiazol-5-yl]-2-methoxy-benzenesulfonamide], the pIC50 is 6.00 to 7.00. To `COc1ccc(-c2sc(NC3CCCCC3)nc2C)cc1S(=O)(=O)NC1CCCC1` [Compound S-129, 5-[2-(cyclohexylamino)-4-methyl-thiazol-5-yl]-N-cyclopentyl-2-methoxy-benzenesulfonamide] belongs 6.00 to 7.00. On to `COc1ccc(-c2sc(NC3CCCCC3)nc2C)cc1S(=O)(=O)NC1CCCCCC1` [Compound S-131, N-cycloheptyl-5-[2-(cyclohexylamino)-4-methyl-thiazol-5-yl]-2-methoxy-benzenesulfonamide], for which the pIC50 was 6.00 to 7.00.

For the molecule `COc1ccc(-c2sc(NCC3CCCCC3)nc2C)cc1S(=O)(=O)NC1CCN(C2CCCC2)CC1` [Compound S-133, 5-[2-(cyclohexylmethylamino)-4-methyl-thiazol-5-yl]-N-(1-cyclopentyl-4-piperidyl)-2-methoxy-benzenesulfonamide], the negative logarithm of the IC50 (pIC50) is > 7.00. On to `COc1ccc(-c2sc(NCC3CCCCC3)nc2C)cc1S(=O)(=O)NC1CCN(C(C)C)CC1` [Compound S-134, 5-[2-(cyclohexylmethylamino)-4-methyl-thiazol-5-yl]-N-(1-isopropyl-4-piperidyl)-2-methoxy-benzenesulfonamide], for which the pIC50 was > 7.00.

As to `COc1ccc(-c2sc(NCC3CCCCC3)nc2C)cc1S(=O)(=O)NC1CCN(C2CC2)CC1` [Compound S-135, 5-[2-(cyclohexylmethylamino)-4-methyl-thiazol-5-yl]-N-(1-cyclopropyl-4-piperidyl)-2-methoxy-benzenesulfonamide], the pIC50 is > 7.00.
